# In patent US20130130223A1, “NOVEL CONDITIONALLY IMMORTALIZED HUMAN PROXIMAL TUBULE CELL LINE EXPRESSING FUNCTIONAL INFLUX AND EFFLUX TRANSPORTERS” (priority 2009, published 2013):
# Assays:
# OK cells = conditions: reference [12]; cited from earlier work
# OCT2/SLC22A2 = molecular target: T1, OCT2/SLC22A2 (Homo sapiens, UniProt O15244); assay: OCT2/SLC22A2 activity (basolateral ASP uptake); assay type: cell-based
# T1 construct: investigated in ciPTEC-14.4 by measuring the activity and expression of the solute carrier tansporter (SLC) OCT2/SLC22A2; endogenous in cells; host or cells: ciPTEC-14.4 grown on Transwell filters
# T1 sequence (O15244 1-555): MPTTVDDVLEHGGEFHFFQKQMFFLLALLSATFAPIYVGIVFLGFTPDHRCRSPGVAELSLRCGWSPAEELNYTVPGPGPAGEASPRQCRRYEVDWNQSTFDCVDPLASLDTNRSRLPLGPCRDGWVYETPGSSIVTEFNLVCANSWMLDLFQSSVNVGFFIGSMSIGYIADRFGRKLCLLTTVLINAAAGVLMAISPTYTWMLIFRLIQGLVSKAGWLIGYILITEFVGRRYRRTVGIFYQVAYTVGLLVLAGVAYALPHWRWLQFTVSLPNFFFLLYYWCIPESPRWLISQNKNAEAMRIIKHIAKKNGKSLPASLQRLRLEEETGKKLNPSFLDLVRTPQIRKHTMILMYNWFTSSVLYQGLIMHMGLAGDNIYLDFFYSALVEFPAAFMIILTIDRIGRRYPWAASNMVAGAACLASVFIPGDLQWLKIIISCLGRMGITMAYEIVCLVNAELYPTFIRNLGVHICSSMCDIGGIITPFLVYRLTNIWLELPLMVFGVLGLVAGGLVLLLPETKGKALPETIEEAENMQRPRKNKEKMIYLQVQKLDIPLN
# Protocol: Transport of xenobiotics across the basolateral membrane was investigated in ciPTEC-14.4 by measuring the activity and expression of the solute carrier tansporter (SLC) OCT2/SLC22A2 using a method adapted from Brown et al. Cells were grown on Transwell®-Clear polyester membranes as described before. Activity of OCT2 was measured by incubating 1 μM fluorescent OCT2 substrate 4-(4-(dimethylamino)styryl)-N-methylpyridinium iodide (ASP, Invitrogen) in Hepes-Tris buffer for 1 min at 37° C. at the basal compartment. To inhibit OCT2 mediated uptake, cells were exposed to 100 μM tetrapentylammonium (TPA) at both apical and basal compartments for 10 min prior to uptake of ASP. Additionally, one set of experiments was performed at 4° C. After incubation, transport was arrested using 1 mM ice-cold TPA. Cells were homogenized using 250 μl Hepes-Tris-Triton (0.1%) buffer for 30 min, followed by analyzing fluorescence intensity (excitation 450 nm, emission 642 nm) using Victor3 Multiplate Reader (Perkin Elmer Inc.). Data are expressed as mean+i-SE.
# [1] = system: sodium-dependent transporters NaPi-IIa (SLC34A1) and NaPi-IIc (SLC34A3); assay: Sodium-dependent phosphate uptake (32PO4); assay type: cell-based, human
# Protocol: Phosphate uptake was performed in confluent monolayers using 32PO4 (Perkin Elmer, Waltham Mass., USA) as described earlier. Cells cultured for 10 days at 37° C. were incubated with 0.2 mM KH2PO4 (10 μCi/ml) for 5 min in four independent experiments, in the presence of 137 mM sodium or 137 mM NMDG to study sodium-dependent transport. Additionally, time- (0.5; 1; 2; 5; 10; 15; 30 or 60 min) and concentration-dependent (0.02; 0.07; 0.22; 0.66 or 2 mM PO4) uptake was studied. Data are expressed as mean+/−SE.
# (§1) Michaelis-Menten curve fitting for calculation of Km and Vmax values was performed by non-linear regression analysis using GraphPad Prism 4.03 software. Differences in substrate transport in presence or absence of inhibitors or unlabelled analogues were assessed by a paired t-test.
# [2] = system: opossum kidney (OK) cells; conditions: reference [20], read-out: Km of apical phosphate transport; cited from earlier work
# ciPTEC-14.4 = assay: Albumin uptake by endocytosis (BSA-FITC uptake); assay type: cell-based, human
# Protocol: The ability of ciPTEC-14.4 to reabsorb albumin was investigated by the incubation of confluent monolayers in 24 well plates with 50 μg/ml BSA-FITC (Sigma-Aldrich) for 30 min at 37° C. unless described otherwise. Uptake was arrested using ice-cold PBS and cells were detached using trypsin, fixed by paraformaldehyde (0.5%) in PBS and analyzed using flow cytometry or immuno-fluorescence microscopy. Concentration- and temperature-dependent uptake, was investigated using a concentration range BSA-FITC (0; 3.7; 11; 33; 100; 300 μg/ml) at 37° C. and on ice for 30 min. Uptake inhibition was studied in three independent experiments by incubating the cells with BSA-FITC (50 μg/ml) in addition of excess unlabelled BSA (10 mg/ml) or recombinant RAP (1 μM), which was a kind gift of Dr. M. Nielsen (University of Aarhus, Denmark). Uptake inhibition by RAP was further examined using a dilution range of RAP. BSA uptake in saturation experiments are plotted as mean fluorescence intensity and in inhibition experiments as mean (+/−SE) percentage uptake compared to control condition.
# as §1
molecule,measurement,setting,value
albumin,apparent Km of albumin uptake,OK cells,20 µg/mL
"CCCCC[N+](CCCCC)(CCCCC)CCCCC [TPA, tetrapentylammonium]","inhibition at 1 min, 100 μM","OCT2/SLC22A2; 100 μM TPA, 1 μM ASP, 1 min 37° C., basal compartment, p<0.05, read-out: inhibition of ASP transport",36%
"O=P([O-])(O)O.[K+] [phosphate, KH2PO4]",decrease of phosphate uptake in the absence of sodium,"[1]; 0.2 mM Pi, 5 min, NMDG as sodium replacement, p<0.001",approximately 86%
same,Km,"[1]; ciPTEC-14.4, read-out: apparent Km of sodium-dependent phosphate uptake",120 µM
same,Km,[2],370 µM
BSA-FITC: FITC labelled bovine serum albumin,apparent Km of BSA-FITC uptake,"ciPTEC-14.4; ciPTEC-14.4, passage 20-25, 30 min, 37° C.",126 µg/mL
unlabelled FITC: excess unlabelled bovine serum albumin used as competitor of BSA-FITC uptake,inhibition of BSA-FITC uptake,"ciPTEC-14.4; 200-fold excess unlabelled (10 mg/ml), BSA-FITC 50 μg/ml, p<0.01",54%
"CN(C)c1ccc(/C=C/c2cc[n+](C)cc2)cc1 [ASP, 4-(4-(dimethyl-amino)styryl)-N-methylpyridinium iodide]","inhibition at 1 min, 1 μM",OCT2/SLC22A2,30%
"RAP: recombinant receptor associated protein, known inhibitor of albumin endocytosis by binding to multi-ligand receptor megalin (protein, UniProt P30533 35-357, looked up) Alpha-2-macroglobulin …: YSREKNQPKPSPKRESGEEFRMEKLNQLWEKAQRLHLPPVRLAELHADLKIQERDELAWKKLKLDGLDEDGEKEARLIRNLNVILAKYGLDGKKDARQVTSNSLSGTQEDGLDDPRLEKLWHKAKTSGKFSGEELDKLWREFLHHKEKVHEYNVLLETLSRTEEIHENVISPSDLSDIKGSVLHSRHTELKEKLRSINQGLDRLRRVSHQGYSTEAEFEEPRVIDLWDLAQSANLTDKELEAFREELKHFEAKIEKHNHYQKQLEIAHEKLRHAESVGDGERVSRSREKHALLEGRTKELGYTVKKHLQDLSGRISRARHNEL",inhibition of BSA-FITC uptake,"ciPTEC-14.4; 1 μM RAP, BSA-FITC 50 μg/ml, 30 min 37° C., p<0.05",41%
same,"inhibition of BSA-FITC uptake, dilution range of RAP",ciPTEC-14.4; BSA-FITC 50 μg/ml,inhibited the uptake of BSA-FITC in a concentration-dependent manner
